The results in this text go back to PubChem BioAssay (NCI).

Each structure is given as a SMILES string.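 Exposure lasted 48 hours, with cells grown in 96-well plates and compounds tested at five concentrations. GI50 = concentration required for 50% inhibition of growth. TGI: concentration producing complete growth inhibition.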 Bounds are passed on as bounds.

Common to all, as to assay: NCI-60 cell line screen, 48 h
Assay [1] relates to UACC-62 melanoma.
Assay [2] deals with ACHN renal.
Assay [3] has as its system RPMI-8226 leukemia.
The test system of assay [4] is SNB-19 CNS.
Assay [5] deals with OVCAR-8 ovarian.
Assay [6] relates to UO-31 renal.
In assay [7] the test system is SK-MEL-2 melanoma.
Assay [8] deals with SK-OV-3 ovarian.
In assay [9] the test system is SF-268 CNS.
Assay [10] concerns HOP-62 NSCLC.

Take `CCCC(CCC)C(=O)OCC1(CO)C/C(=C\c2ccc(F)cc2)C(=O)O1` (stereo not given): the GI50 was 8.16 µM in [1]; 9.32 µM in [2]; 0.845 µM in assay [3]; 18.2 µM in assay [4]; 17.9 µM in [5]; 8.35 µM in assay [6]. Besides, the GI50 is 17.2 µM in assay [7], 19.5 µM in [8], 13.2 µM in [9] and 4.11 µM in assay [10]. In addition, the TGI in assay [1] turned out to be 23.8 µM; in assay [2], 23.4 µM; in assay [3], 7.15 µM; in assay [4] it was 32.2 µM; in [5], 37 µM; in [6] it was 24.4 µM. Besides, the TGI in assay [7] is 34.1 µM; in assay [8], 33.9 µM; in [9], 26.7 µM; in [10], 17 µM.
Consider `O=C(O)C(Cl)(c1ccccc1)c1ccccc1`, for which the TGI in [1], in assay [2], in assay [3], in assay [4], in [5] and in assay [6] was more than 100 µM in each case. Further, the TGI in [7], in [8], in assay [9] and in assay [10] was more than 100 µM each time.
Take `CCn1c(-c2cc3ccccc3cc2O)nn(C(=O)c2c(Cl)cccc2Cl)c1=S`: the GI50 was 17.2 µM in assay [1]; 16.2 µM in assay [2]; 13.3 µM in assay [3]; more than 50 µM in assay [4]; more than 50 µM in assay [5]; 10.5 µM in assay [6]. For the same molecule, the GI50 was 9.05 µM in assay [7], 15.4 µM in [8], more than 50 µM in assay [9] and 24.2 µM in [10]. The TGI in assay [1] was more than 50 µM; in assay [2], more than 50 µM; in assay [3], 46.1 µM; in assay [4], more than 50 µM; in assay [5], more than 50 µM; in assay [6] it was 24.8 µM. In addition, the TGI in assay [7] is 21.1 µM; in assay [8], 40 µM; in [9], more than 50 µM; in assay [10], more than 50 µM.
On to `COc1cccc(C2c3cc4c(cc3OC(N3CCCC3)C2C)OCO4)c1O` (stereo not given), for which the TGI in assay [1] was 43.7 µM; in assay [2], more than 88.7 µM; in assay [3] it was 27.9 µM; in assay [4] it was more than 100 µM; in [5], 42 µM; in assay [6] it was 46.7 µM. The TGI in assay [7] stood at 30.4 µM; in assay [8], 35.2 µM; in assay [9], 70.1 µM; in assay [10], 45.7 µM.
For the molecule `O=c1c(Cl)c(Cl)c(=O)c2sc3cc(Cl)ccc3[nH]c1=2`, the TGI in assay [1] was more than 100 µM; in [2], more than 100 µM; in assay [3], 17.2 µM; in assay [4], more than 100 µM; in assay [5], 35 µM; in assay [6], 36 µM. Moreover, the TGI in assay [7], in assay [8], in assay [9] and in assay [10] was more than 100 µM each time.
In the case of `CC/C(CC(=O)CCC(=O)Nc1ccccc1[N+](=O)[O-])=N/NC(=O)C[n+]1ccccc1`, the TGI in assay [1], in assay [2], in assay [3], in assay [4], in [5] and in [6] was more than 100 µM in each case. Also, the TGI in [7], in assay [8], in assay [9] and in [10] was more than 100 µM in each case.
`C/C=C/CC(C)[C@@H](O)[C@H](NC)C(=O)O` (stereo not given in full): the TGI in assay [1], in [2], in [3], in assay [4], in [5] and in assay [6] was more than 100 µM each time. Besides, the TGI in assay [7], in assay [8], in assay [9] and in [10] was more than 100 µM in each case.
Take `CC(C)(C)CC(C)(C)NCc1cc(C(C)(C)C)cc(CNC(C)(C)CC(C)(C)C)c1O`: the GI50 in [1] is 3.34 µM; in assay [2], 2.81 µM; in [3] it was 2.46 µM; in assay [4], 5.24 µM; in [5], 3.25 µM; in assay [6] it was 1.92 µM. The GI50 in assay [7] was 2.84 µM; in [8], 2.52 µM; in assay [9] it was 5.4 µM; in assay [10] it was 4.69 µM. For the same molecule, the TGI in assay [1] was 12.3 µM; in assay [2] it was 10.8 µM; in assay [3] it was 6.49 µM; in assay [4] it was 17.8 µM; in assay [5], 12.4 µM; in [6], 9.91 µM. The TGI in assay [7] came to 6.6 µM; in assay [8], 8.45 µM; in assay [9], 18.7 µM; in assay [10] it was 17.9 µM.
As to `Cn1c2ccc(Br)cc2c2c3c(c4c5ccccc5[nH]c4c21)C(=O)N(O)C3=O`, the GI50 in assay [1] was 0.183 µM; in assay [2], 0.0448 µM; in assay [3] it was 0.151 µM; in [4] it was 0.0777 µM; in assay [5], 0.149 µM; in [6], 0.0917 µM. Also, the GI50 in [7] is 0.226 µM; in [8], 0.265 µM; in assay [9], 0.0763 µM; in assay [10], 0.131 µM. For the same molecule, the TGI in [1] was determined as 0.529 µM; in assay [2] it was 0.244 µM; in assay [3] it was 0.672 µM; in assay [4], 0.696 µM; in [5] it was 0.683 µM; in [6], 0.308 µM. Moreover, the TGI came to 0.469 µM in assay [7], 0.773 µM in assay [8], 0.72 µM in assay [9] and 0.653 µM in [10].
Take `C=C1CCC2C(C)(COC(=O)CC)C(OC(=O)CC)CCC2(C)C1C/C=C1/C(=O)OCC1OC(=O)CC` (stereo not given): the GI50 in assay [1] was 2.23 µM; in assay [2], 1.74 µM; in assay [3], 3.77 µM; in [4] it was 3.74 µM; in [5] it was 0.634 µM; in [6], 1.88 µM. Also, the GI50 in assay [7] is 1.44 µM; in assay [8], 3.85 µM; in [9] it was 1.91 µM; in assay [10], 1.7 µM. The TGI was 5.2 µM in [1]; 3.24 µM in assay [2]; more than 100 µM in [3]; 14.7 µM in [4]; 2.13 µM in assay [5]; 3.38 µM in assay [6]. In addition, the TGI was 3.02 µM in [7], 9.74 µM in assay [8], 3.39 µM in assay [9] and 3.27 µM in assay [10].
